In ChEMBL document CHEMBL3507680, “University of Dundee, Gates Library screen for HepG2 cell viability”:

Experiment: Human HepG2 cell viability assay in 384 well format
Format: toxicity, cell-based
Parameters: dose 125 nL, time 70.5 hour; concentration not given beside the values
Settings: HepG2 cells, read-out: Inhibition

Row | Compound | cytotoxicity at 70.5 h [%]
1 | c1cc(COC[C@]23COC[C@H]2CN(CC2CCC2)C3)ccn1 | -11.8
2 | CCN(CC1CCOC1)C(=O)CSCC(=O)Nc1ccc(C)cc1 (stereo unspecified) | -2.49
3 | NC(=O)C1CN(C(=O)Nc2ccccc2OCC(F)(F)F)CCO1 (stereo unspecified) | -4.53
4 | c1cncc(N2CCOC3(CCCN(c4nncs4)C3)C2)c1 (stereo unspecified) | -7.3
5 | CC(C)C(NC(=O)c1ccc(=O)[nH]c1)c1nnc2n1CCNCC2 (stereo unspecified) | -6.19
6 | COCCN1CCC2(CC1)CC(NCc1ccc(C)s1)c1ccccc12 (stereo unspecified) | 2.38
7 | Cc1cc(C)nc(CN(C)C(=O)c2cccc(CCC(C)(C)O)c2)c1 | -4.1
8 | CNC(=O)C1(c2cnccn2)CCCN1C(=O)c1cccnc1OC (stereo unspecified) | -9.36
9 | Clc1ccccc1CNC(Cn1cncn1)c1ccccc1 (stereo unspecified) | 14.7
10 | CNC(=O)[C@H]1C[C@@H]2CN(Cc3ccc(C)cc3)C[C@H]1O2 | -6.44
11 | COCCN(Cc1ccsc1)C(=O)c1c(C)cc(C)[nH]c1=O | -1.09
12 | COc1ccc(Br)c(NC(=O)NCc2cnn(C)c2)c1 | -13.3
13 | COc1ccc(CN(C(=O)C(C)C)c2cnn(C)c2)c(OC)c1 | -1.23
14 | Cc1ccc(NC(=O)c2ccc(CC3CC(=O)NC3=O)cc2)cc1O (stereo unspecified) | -2.83
15 | Cc1ccc(S(=O)(=O)NCCc2nnc[nH]2)c2cccnc12 | 15.2
16 | O=C1CCNc2ccc(F)cc2CN1Cc1ccccc1 | 2.31
17 | C=C(C)COc1ccccc1C(=O)NCCc1cc(O)nc(C)n1 | -11.9
18 | Cc1cc(C(=O)N2CC[C@@H](O)[C@@H]2Cc2ccccc2)no1 | -11.3
19 | COC(=O)N1CCC(CNS(=O)(=O)c2cnn(C)c2)CC1 | -0.269
20 | O=C1NCC[C@]12CN(CC1CCOCC1)C[C@H]2c1ccccc1 | -7.01
21 | CCC[C@H]1CN(Cc2cc(C#N)n(C)c2C)C[C@@H]1NS(=O)(=O)CC | -6.14
22 | CCS(=O)(=O)c1ccc2oc([C@H]3CCN(CC4CCCCC4)C3)nc2c1 | 13.1
23 | Cc1cccc2c1cnn2CCCNC(=O)c1ccnn1C | -12.7

Row | Compound | cytotoxicity at 70.5 h [%]
24 | Cc1ccc(CC(=O)N2CCn3cc(Cn4cncn4)nc3C2)cc1 | -7.66
25 | Cc1n[nH]c2c1C(c1ccc(O)cc1)SCC(=O)N2 (stereo unspecified) | -11
26 | CC(C)CN1C[C@@H]2CN(S(=O)(=O)c3cccs3)C[C@@H]2C1=O | -10.3
27 | c1ccc(CN2CCn3c(Cn4cncn4)cnc3C2)nc1 | -10.2
28 | CC(C)n1ccnc1C1CCN(c2nccc(C(F)(F)F)n2)CC1 | 5.98
29 | NCC1Cc2cc(Cl)cc(-c3cncc(C(=O)N4CCCCC4)n3)c2O1 (stereo unspecified) | -6.78
30 | CCc1ccsc1C(=O)NCCn1nc2ccccn2c1=O | -5.41
31 | CS(=O)(=O)NC[C@]12COC[C@H]1CN(C(=O)N1CCCC1)C2 | -4.24
32 | CS(=O)(=O)N1CCC(Oc2ccc(C(=O)NC3CCCC3)cc2Cl)CC1 | -7.15
33 | Cc1[nH]ccc1C(=O)Nc1cccc(CN2CCC(CO)CC2)c1 | 27.9
34 | O=C(c1ccc(=O)[nH]c1)N1C[C@@H]2CC[C@H](C1)N(Cc1ccccc1)C2 | -8.28
35 | CC(C)(C)C(=O)NCCC(=O)NS(=O)(=O)c1ccc2c(c1)OCCO2 | 0.749
36 | c1cnc(N2CCCC3(CCN(Cc4ccsc4)C3)C2)nc1 (stereo unspecified) | 11.1
37 | O=C(c1ccc[nH]1)N1C[C@H](OCc2ccccn2)[C@H]2COC[C@H]21 | -5.92
38 | CS(=O)(=O)N[C@H]1CN(CCOCc2ccccc2)C[C@@H]1C1CC1 | -2.16
39 | CC(C)c1nc(NC(=O)CCCn2cccc2)n(C)n1 | 3.43
40 | CCN(CC)c1ccc(-c2nc(-c3cccc(OC)c3OC)no2)cn1 | -7.4
41 | CC(C)(C)NC(=O)N1CCN(Cc2cccnc2)CC1 | -3.39
42 | CC(C)NC(=O)c1cc(-c2ccc(S(C)(=O)=O)cc2)c2cnn(C)c2n1 | -0.443
43 | COc1ccc(-c2nc(CN3CCCC(OC)C3)c(C)o2)c(F)c1 (stereo unspecified) | 10.8
44 | Cc1cnc(C2CCCN(C(=O)c3c[nH]c(=O)[nH]c3=O)C2)s1 (stereo unspecified) | -8.7
45 | Cc1ccc(CN2CC[C@H]3[C@H]2CCN3S(C)(=O)=O)s1 | -6.63
46 | CC(C)Cc1nc(CN(C)CCOc2ccc(F)cc2)no1 | -8.43

Row | Compound | cytotoxicity at 70.5 h [%]
47 | Cc1ccc(NC2CCN(C(=O)c3cccc4cccnc34)CC2)nn1 | -6.15
48 | CN(C)c1ccc(NC(=O)N2CCCC2c2ccsc2)cn1 (stereo unspecified) | -12.1
49 | O=C(NCCCNc1ccc(C(F)(F)F)cn1)c1ccc2c(c1)OCO2 | -9.51
50 | Cc1ccc(CC2CCCN2CC(=O)NCc2ccccn2)cc1 (stereo unspecified) | 15.4
51 | COc1ccc(CC(=O)NC(C)c2nc3cccnc3n2C(C)C)cc1 (stereo unspecified) | 2.45
52 | CCc1nc(CN(C)C2CCN(CCc3ccccn3)C2)no1 (stereo unspecified) | 3.72
53 | CS(=O)(=O)NCC1CCCCN1Cc1cccc(C#N)c1 (stereo unspecified) | -1.33
54 | COc1cc(C(=O)O)ccc1OCC(=O)NC(C)c1ccc(F)cc1 (stereo unspecified) | -5.08
55 | CC(C)NC(=O)CCNC(=O)CCc1cc(Cl)cs1 | -8.99
56 | CC(C)CN1CCC2(CC1)CC(NS(C)(=O)=O)c1ccccc1O2 (stereo unspecified) | 3.23
57 | COCCN1CCC(CNCc2c[nH]nc2C(C)(C)C)CC1 | 24.7
58 | CN(C)C(=O)CCNC(=O)Nc1sc2ccccc2c1Cl | -7.68
59 | CCN1CCN(C[C@@H]2CN(c3ncccc3F)C[C@@H]2CO)CC1 | 23.4
60 | O=C(NCc1nncn1C1CC1)c1ccc(F)c(COCC2CC2)c1 | 7.64
61 | O=C(C1CCC1)N1CC[C@H](O)[C@@H]1Cc1cccnc1 | 1.53
62 | Cc1cc2c(=O)n(CCSc3cnn[nH]3)cnc2s1 | -12.3
63 | O=C(NC1CCN(c2ncccn2)CC1)c1cccc(-n2ccnc2)c1 | -7.96
64 | O=S(=O)(Nc1cnn(C2CCOCC2)c1)c1ccc2c(c1)CCO2 | -5.29
65 | CC1COCCN1C(=O)NCCn1ccnc1 (stereo unspecified) | -3.25
66 | Cc1nnc2n1CCN(C(=O)CN1C(=O)CCOc3ccccc31)C2 | -7.17
67 | COC(=O)c1c(Cl)c(C)nc2onc(C)c12 | -9.83
68 | CN1C[C@H]2CN(Cc3cccc(OC(F)(F)F)c3)CCN2C1=O | 8.83
69 | CS(=O)(=O)N1CCCC12CCCN(c1nccs1)C2 (stereo unspecified) | -3.55

Row | Compound | cytotoxicity at 70.5 h [%]
70 | COC1COC2(CCN(CC3CC3)CC2)C1 (stereo unspecified) | -12.5
71 | CCOCC(=O)N1CCC2(CC1)COC(COCc1ccccn1)C2 (stereo unspecified) | 4.72
72 | CC(C)c1nsc(NC2CC(=O)N(C(C)(C)C)C2)n1 (stereo unspecified) | -8.61
73 | CC(C)NC(=O)C1CCN(C(C)C(=O)N2CCc3sccc3C2)CC1 (stereo unspecified) | -2.44
74 | CCC(C)N(CC)C(=O)c1ccc2[nH]nnc2c1 (stereo unspecified) | -6.36
75 | CNC(=O)C1CN(Cc2cc(C)on2)CCN(C2CCOCC2)C1 (stereo unspecified) | -7.77
76 | CN1C[C@H](c2ccccc2)[C@H]2CN(C(=O)Cc3ccc(O)cc3)CC[C@H]21 | 22.7
77 | Cc1ccccc1CS(=O)(=O)CC(=O)NCc1ccccc1F | 4.2
78 | CCn1cc2c(n1)CN(Cc1ccoc1)CC2COCC1CC1 (stereo unspecified) | 6.36
79 | COc1cc(CN(C)C(=O)NCC(=O)NC(C)C)ccc1SC | -1.54
80 | CCCc1noc(C2CCN(S(=O)(=O)c3cccs3)CC2)n1 | -2.96
81 | COc1ccc(CNC2CCC(O)CC2)cc1OCCCC#N (stereo unspecified) | -5.82
82 | CCN(CC1CN(Cc2ccccn2)CCO1)c1cccnn1 (stereo unspecified) | -9.99
83 | CC(C)c1nc(O)c2nnn(C[C@@H]3CCCN(Cc4ccsc4)C3)c2n1 | -2.22
84 | FC(F)(F)CCN(Cc1ccon1)C1CCCC1 | -7.02
85 | O=C(c1cccs1)N1CCC2(CC1)CC(Oc1ccccc1)CO2 (stereo unspecified) | -10.8
86 | Cc1cnn(C2CCCN(C(=O)CCCNc3ncccn3)C2)c1 (stereo unspecified) | -14.5
87 | CN(C(=O)c1cccc(C(=O)NS(C)(=O)=O)c1)c1ccccc1 | -8.09
88 | CCCc1cnc(C)nc1N1CCC(Cn2cc(C(C)O)nn2)CC1 (stereo unspecified) | -13.9
89 | CCC(C)N(C)C(=O)Nc1ccc(N2CCSCC2)cc1C (stereo unspecified) | -5.01
90 | CN(C)CCO[C@@H]1CC[C@H]2[C@H]1OCCN2C(=O)c1ccc(F)cc1 | -1.79
91 | O=C(c1nc(=O)[nH][nH]1)N1CCCCCC1 | -1.45
92 | CCc1cc(=O)[nH]c(-c2ccc(NC(CO)CC(C)C)nc2)n1 (stereo unspecified) | -2.63

Row | Compound | cytotoxicity at 70.5 h [%]
93 | COCCNC(=O)C[C@@H]1COC[C@H]2CN(C(=O)c3cnccn3)C[C@@H]12 | -6.71
94 | CS(=O)(=O)N[C@@H]1CN(Cc2ccncc2)C[C@@H]2CCCO[C@@H]21 | -9.37
95 | CCC[C@H]1CN(Cc2nccn2C)C[C@@H]1NC(=O)C1(COC)CCC1 | -4.15
96 | C[C@@H]1C(=O)NC[C@H]2CN(Cc3ccc4c(c3)OCO4)C[C@H]21 | -10.2
97 | COc1ccc(Cl)cc1C(C(=O)O)N1CCSCC1 (stereo unspecified) | -3.65
98 | C=CNC(=O)c1nnc2ccc(N3CCOCC3)cc2n1 | -10.8
99 | O=C(c1ccc[nH]1)N1CCCC2(CCCN2Cc2cccnc2)C1 (stereo unspecified) | 11.9
100 | CCc1ncc(CN2C[C@@H]3C[C@@H](O)CN3C[C@@H]2Cc2ccccc2)cn1 | -5.41
101 | COc1ccc(Cl)cc1NC(=O)N1CCc2nc(NC(C)=O)sc2C1 | -5.4
102 | Cc1cc(CNC(=O)c2ccno2)c(C)o1 | -7.21
103 | CCc1noc(C(C)N(C)CC(=O)Nc2ccc(Br)cc2C)n1 (stereo unspecified) | -96.5
104 | Cc1ccc(CNC(=O)NCc2cccnc2N(C)C)s1 | -14.6
105 | CC(Sc1nc(N)cc(N)n1)c1nc(C(C)(C)C)no1 (stereo unspecified) | -2.01
106 | c1coc(CN2CCO[C@H]3[C@H](OCC4CC4)CC[C@@H]32)c1 | -10.8
107 | c1nc(N2CCOCC2)sc1-c1cncn1CCCN1CCCCC1 | -4.2
108 | COc1ccccc1[S+]([O-])CC(=O)NCc1cc(F)cc(F)c1 (stereo unspecified) | 2.23
109 | O=C(CN1CCOC(c2ccc(Cl)s2)C1)NCc1ccco1 (stereo unspecified) | 17
110 | N#Cc1cn(C2CC2)c(=O)n(Cc2noc(-c3ccsc3)n2)c1=O | -14
111 | COc1cc(S(=O)(=O)N2C[C@@H](C)[C@@](C)(O)C2)c(C)cc1C | 0.245
